Assay results from article PMC8840081, “Phenylalanine-Based AMPA Receptor Antagonist as the Anticonvulsant Agent with Neuroprotective Activity—In Vitro and In Vivo Studies” (Molecules, 2022).

What was measured:
[1] = test system: SH-SY5Y neuroblastoma cells; assay: neuroprotection against 6-OHDA-induced LDH release; type: cell-based, human; conditions: compound 50 µM
Method: (§1) All cell culture protocols and assay conditions were applied as we reported previously. SH-SY5Y (ATCC® CRL-2266™) cell line was purchased from ATCC (Manassas, VA, USA). IMR-32 (ATCC® CCL-127™) cell line was kindly provided by the Department of Oncogenomics, Academisch Medisch Centrum, Amsterdam, Holland. Before each test SH-SY5Y or IMR-32 cells were seeded in 96-well plates with transparent bottom at a concentration of 2.5 × 10^4 cells/well in 100 μL of respective cell culture medium and cultured for 24 h to reach 70% confluence. • Cell Viability
(§2) CytoTox-ONE™ Homogeneous Membrane Integrity Assay, which based on the LDH release, was purchased from Promega (Madison, WI, USA). SH-SY5Y or IMR-32 cells were seeded in 96-well white plates with transparent bottom. For neuroprotective studies, the cells were preincubated first for 1 h with compound 1, 8 or reference antioxidants AA, TX (all at the concentration of 50 μM) and next the neurotoxin 6-OHDA (Sigma-Aldrich, Inc., St. Louis, MO, USA) was added at final concentration of 50 μM (SH-SY5Y assay) or 200 µM (IMR-32 assay). After 24 h of incubation, the CytoTox-ONE™ was added to each well and the cells were incubated next for 10 min at room temperature. The fluorescence was measured using a microplate reader EnSpire (PerkinElmer, Waltham, MA, USA) with an excitation wavelength of 560 nm and an emission wavelength of 590 nm. All measurements were performed in triplicate and results are shown as mean ± SD. The similar studies were also performed with SH-SY5Y cells injured by 100 μM of 6-OHDA (Figure S1, Supporting Materials). • ROS Assay

[2] = test system: IMR-32 neuroblastoma cells; assay: neuroprotection against 6-OHDA-induced LDH release; type: cell-based, human; conditions: IMR-32, compound 50 µM, 1 h pretreatment, 200 µM 6-OHDA, 24 h
Method: as §1, §2

[3] = ferric reducing antioxidant power (FRAP) assay; conditions: % of ascorbic acid activity; compounds and AA at 1 mM
Method: The total antioxidant potential of aryl-substituted phenylalanine derivatives was determined using FRAP assay. The FRAP reagent was prepared first by mixing acetate buffer (300 mM, pH 3.6), a solution of 10 mM TPTZ (2,4,6-tripyridyl-s-triazine, Sigma-Aldrich, Inc., St. Louis, MO, USA) in 40 mM HCl and 20 mM of iron (III) chloride hexahydrate (FeCl3 × 6H2O, Chempur, Piekary Śląskie, Poland) at 10:1:1 (v/v/v). The FRAP reagent (190 μL) and 1 mM of tested compound (10 μL) was added next to each well, mixed and incubated for 30 min. The absorbance was measured using a microplate reader EnSpire (PerkinElmer, Waltham, MA USA) at 593 nm. AA (1 mM, AMARA, Kraków, Poland) was used as the reference antioxidant. The results were expressed as % of ascorbic acid activity (%AAA). Analyses were performed in triplicate. • ORAC-FL

[4] = oxygen radical absorbance capacity fluorescent (ORAC-FL) assay; conditions: Trolox equivalent, calculated at 5 µM of compounds and Trolox
Method: The ORAC-FL was performed according to procedure described in the literature. The reagents used in this assay, TX, fluorescein and 2,2′-azobis(2-amidinopropane) dihydrochloride (AAPH), were purchased from Sigma-Aldrich, Inc., St. Louis, MO, USA. The prepared ORAC-FL reagent consisted of 0.3 μM of fluorescein and 100 µM of AAPH dissolved in PBS buffer. The compounds and the reference antioxidant TX were tested at the concentration 2.5 µM and the results were compared to the blank in which no antioxidant was present. The assays were performed in black 96-well plates. The fluorescence readings were taken by a microplate reader EnSpire (PerkinElmer, Waltham, MA, USA) every minute for a duration of 240 min. The excitation wavelength was 485 nm and the emission wavelength was 520 nm. The area under the fluorescence decay curve (AUC) was calculated next by GraphPad Prism™ software (version 5.01, San Diego, CA, USA). All measurements were performed in triplicate. The TX equivalent (TE) was calculated next using the following Equation (1):TE = [(AUCsample − AUCblank)/(AUCTX − AUCblank)] × [CTX/Csample](1)

[5] = test system: native AMPA receptors; conditions: cited from earlier work; for Ki / IC50: native AMPA receptors, rat brain membranes, mean of three experiments; for Ki: read-out: [3H]AMPA Ki; for IC50: read-out: [3H]AMPA IC50 (footnote 4: IC50 values)
[6] = 1 h pretreatment, 50 µM 6-OHDA, 24 h

SMILES | 6-OHDA-induced release of LDH (neuroprotection) ([1]; 100 µM 6-OHDA) | 6-OHDA-induced release of LDH (neuroprotection) [1, 6] | 6-OHDA-induced release of LDH (neuroprotection) [2] | FRAP (%AAA) [3] [%AAA] | ORAC (TE) [4] [TE] | selectivity over NMDA and KA receptors [5] | Ki [5] [µM] | IC50 [5] [µM]
O=C1O[C@H]([C@@H](O)CO)C(O)=C1O [AA, ascorbic acid, reference compound] | neuroprotective effect was not observed | no statistically significant neuroprotective effect | no statistically significant neuroprotective effect |  |  |  |  | 
NC(Cc1cc(-c2cncc(O)c2)c(Cl)c([N+](=O)[O-])c1)C(=O)O (centres unmarked) [Compound 2] |  |  |  | 691.21 | 3.15 | high selectivity | 2 | 
NC(Cc1cc(Cl)c(O)c(-c2cccc(O)c2)c1)C(=O)O (centres unmarked) [Compound 3] |  |  |  | 311.56 | 4.61 |  | 7.9 | 
NC(Cc1cc(Cl)c(Cl)c(-c2ccc(O)c(O)c2)c1)C(=O)O (centres unmarked) [Compound 4] |  |  |  | 177.23 | 4.02 |  |  | 12
NC(Cc1cc(-c2ccc(O)cc2)cc([N+](=O)[O-])c1)C(=O)O (centres unmarked) [Compound 5] |  |  |  | 96.32 | 4.32 |  | 21 | 
Nc1ccc(CC(N)C(=O)O)cc1-c1cccc(O)c1 (centres unmarked) [Compound 6] |  |  |  | 67.35 | 6.09 |  | 9.1 | 
NC(Cc1cc(Cl)cc(-c2ccc(O)cc2)c1)C(=O)O (centres unmarked) [Compound 7] |  |  |  | 49.39 | 3.29 |  | 46 | 
NC(Cc1cc(-c2cccc(O)c2)cc([N+](=O)[O-])c1)C(=O)O (centres unmarked) [Compound 9] |  |  |  | 43.43 | 4.67 |  | 8.2 | 
NC(Cc1ccc([N+](=O)[O-])c(-c2cccc(O)c2)c1)C(=O)O (centres unmarked) [Compound 10] |  |  |  | 32.04 | 1.43 |  | 21 | 
NC(Cc1cc(Cl)c(Cl)c(-c2cc(O)cc(O)c2)c1)C(=O)O (centres unmarked) [Compound 11] |  |  |  | 28.90 | 4.18 |  |  | 16
Nc1c(-c2cccc(O)c2)cc(CC(N)C(=O)O)cc1[N+](=O)[O-] (centres unmarked) [Compound 12] |  |  |  | 24.93 | 4.27 |  | 14 | 
NC(Cc1ccc(Cl)c(-c2cccc(O)c2)c1)C(=O)O (centres unmarked) [Compound 13] |  |  |  | 24.08 | 2.86 |  | 9.2 | 
Nc1c(Cl)cc(CC(N)C(=O)O)cc1-c1cccc(O)c1 (centres unmarked) [Compound 14] |  |  |  | 23.80 | 4.75 |  | 10 | 
NC(Cc1cc(Cl)c(Cl)c(-c2ccc(O)cc2)c1)C(=O)O (centres unmarked) [Compound 15] |  |  |  | 13.70 | 1.45 |  |  | 33
NC(Cc1cc(Cl)c(Cl)c(-c2ccccc2O)c1)C(=O)O (centres unmarked) [Compound 16] |  |  |  | 10.32 | 1.54 |  |  | 85
NC(Cc1ccc(Cl)c(-c2ccc(O)cc2)c1)C(=O)O (centres unmarked) [Compound 17] |  |  |  | 9.13 | 1.96 |  | 65 | 
NC(Cc1cc(-c2cccc(O)c2)c(Cl)c([N+](=O)[O-])c1)C(=O)O (centres unmarked) [Compound 18] |  |  |  | 6.29 | 1.34 | high selectivity | 3.1 | 
NC(Cc1cccc(-c2cccc(O)c2)c1)C(=O)O (centres unmarked) [Compound 19] |  |  |  | 4.94 | 1.96 |  |  | 9.9
NC(Cc1ccc([N+](=O)[O-])c(-c2ccc(O)cc2)c1)C(=O)O (centres unmarked) [Compound 20] |  |  |  | 4.41 | 1.62 |  | 64 | 
NC(Cc1cc(-c2ccc(O)cc2)c(Cl)c([N+](=O)[O-])c1)C(=O)O (centres unmarked) [Compound 21] |  |  |  | 2.76 | 2.56 |  | 23 | 
COc1c(Cl)cc(CC(N)C(=O)O)cc1-c1cccc(O)c1 (centres unmarked) [Compound 22] |  |  |  | 2.76 | 1.38 |  | > 100 | 
Cc1c(C)c2c(c(C)c1O)CCC(C)(C(=O)O)O2 (centres unmarked) [TX, Trolox, reference compound] | neuroprotective effect was not observed | no statistically significant neuroprotective effect | no statistically significant neuroprotective effect |  |  |  |  | 
